Experimental data from patent publication US12447153B2, “HER2 mutation inhibitors” (Array BioPharma Inc., priority 2021, dated 2025).

Experiments:
MDR1 (P-gp) = MDR1 (P-gp) (Homo sapiens (Human), UniProt P08183); test: in vitro; conditions: pig, LLC-PK1
BCRP = BCRP (Homo sapiens (Human), UniProt Q9UNQ0); test: BCRP MDCKII efflux assay (Assay 7); type: in vitro ADME; conditions: dog; efflux ratio Papp(B-A)/Papp(A-B), BCRP MDCKII cells; read-out: Assay 7 Pe Ratio
Description: Assay conditions included with and without the BCRP-specific inhibitor, KO143, at a concentration of 0.3 μM to ascertain the contribution of BCRP to the efflux value of the test compound.
Final organic concentration in the assay was 1%.

ErbB2 WT = ErbB2 WT (Homo sapiens (Human), UniProt P04626); test: ErbB Enzyme Assay (HTRF KinEASE-TK), Assay 2; type: biochemical
EGFR wild type (EGFR WT) = EGFR wild type (EGFR WT) (Homo sapiens (Human), UniProt P00533); test: Cellular Phosphorylation Assay, Assay 5 (EGF-stimulated EGFR phosphorylation, NIH 3T3 cells); type: cell-based
[1] = target: ErbB2 with Exon 20 YVMA insertion (HER2-YVMA) (Homo sapiens (Human), UniProt P04626, INS775YVMA); test: Cellular Phosphorylation Assay, Assay 4 (constitutive ErbB2 phosphorylation, NIH 3T3 cells); type: cell-based
EGFR = EGFR (Homo sapiens (Human), UniProt P00533); test: ErbB Enzyme Assay (HTRF KinEASE-TK), Assay 3; type: biochemical
[2] = EGF-stimulated EGFR WT phosphorylation
[3] = cellular EGFR WT phosphorylation, EGF-stimulated
[4] = cellular ErbB2 YVMA phosphorylation

Chain of ErbB2 with Exon 20 YVMA insertion (HER2-YVMA) (P04626 other isoform, or with tags, fused parts or gaps ins YVMA behind 775): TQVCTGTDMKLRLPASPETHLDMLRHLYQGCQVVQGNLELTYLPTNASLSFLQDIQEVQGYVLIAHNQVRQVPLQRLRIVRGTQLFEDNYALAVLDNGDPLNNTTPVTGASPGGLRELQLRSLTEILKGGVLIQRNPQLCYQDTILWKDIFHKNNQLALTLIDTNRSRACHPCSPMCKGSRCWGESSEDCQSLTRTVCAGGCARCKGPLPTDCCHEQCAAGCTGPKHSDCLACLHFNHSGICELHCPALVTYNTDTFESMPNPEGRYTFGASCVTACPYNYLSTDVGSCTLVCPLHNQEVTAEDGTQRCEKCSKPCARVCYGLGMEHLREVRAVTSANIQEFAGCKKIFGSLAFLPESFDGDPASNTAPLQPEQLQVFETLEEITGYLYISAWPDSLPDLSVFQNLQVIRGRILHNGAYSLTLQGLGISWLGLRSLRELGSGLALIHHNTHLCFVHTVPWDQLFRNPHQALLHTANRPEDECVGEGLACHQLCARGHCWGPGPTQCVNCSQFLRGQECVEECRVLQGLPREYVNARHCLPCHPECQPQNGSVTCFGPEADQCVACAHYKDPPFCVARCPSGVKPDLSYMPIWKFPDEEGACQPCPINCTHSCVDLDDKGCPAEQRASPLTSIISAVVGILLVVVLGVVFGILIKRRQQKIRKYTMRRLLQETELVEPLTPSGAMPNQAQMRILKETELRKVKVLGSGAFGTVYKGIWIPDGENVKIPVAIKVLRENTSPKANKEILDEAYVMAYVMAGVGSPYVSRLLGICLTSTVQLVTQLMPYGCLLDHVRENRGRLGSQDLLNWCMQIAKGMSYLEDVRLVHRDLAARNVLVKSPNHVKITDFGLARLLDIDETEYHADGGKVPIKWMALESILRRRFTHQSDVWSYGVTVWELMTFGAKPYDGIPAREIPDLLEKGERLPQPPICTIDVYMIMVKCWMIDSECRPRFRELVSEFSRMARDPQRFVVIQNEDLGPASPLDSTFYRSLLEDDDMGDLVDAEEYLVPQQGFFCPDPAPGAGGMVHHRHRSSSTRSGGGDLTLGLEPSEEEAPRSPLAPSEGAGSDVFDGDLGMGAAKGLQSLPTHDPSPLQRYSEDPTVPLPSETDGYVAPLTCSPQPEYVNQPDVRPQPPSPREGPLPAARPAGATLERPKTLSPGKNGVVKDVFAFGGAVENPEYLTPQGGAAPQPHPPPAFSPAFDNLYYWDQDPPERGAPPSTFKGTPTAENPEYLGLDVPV
Chain of MDR1 (P-gp) (P08183 whole entry): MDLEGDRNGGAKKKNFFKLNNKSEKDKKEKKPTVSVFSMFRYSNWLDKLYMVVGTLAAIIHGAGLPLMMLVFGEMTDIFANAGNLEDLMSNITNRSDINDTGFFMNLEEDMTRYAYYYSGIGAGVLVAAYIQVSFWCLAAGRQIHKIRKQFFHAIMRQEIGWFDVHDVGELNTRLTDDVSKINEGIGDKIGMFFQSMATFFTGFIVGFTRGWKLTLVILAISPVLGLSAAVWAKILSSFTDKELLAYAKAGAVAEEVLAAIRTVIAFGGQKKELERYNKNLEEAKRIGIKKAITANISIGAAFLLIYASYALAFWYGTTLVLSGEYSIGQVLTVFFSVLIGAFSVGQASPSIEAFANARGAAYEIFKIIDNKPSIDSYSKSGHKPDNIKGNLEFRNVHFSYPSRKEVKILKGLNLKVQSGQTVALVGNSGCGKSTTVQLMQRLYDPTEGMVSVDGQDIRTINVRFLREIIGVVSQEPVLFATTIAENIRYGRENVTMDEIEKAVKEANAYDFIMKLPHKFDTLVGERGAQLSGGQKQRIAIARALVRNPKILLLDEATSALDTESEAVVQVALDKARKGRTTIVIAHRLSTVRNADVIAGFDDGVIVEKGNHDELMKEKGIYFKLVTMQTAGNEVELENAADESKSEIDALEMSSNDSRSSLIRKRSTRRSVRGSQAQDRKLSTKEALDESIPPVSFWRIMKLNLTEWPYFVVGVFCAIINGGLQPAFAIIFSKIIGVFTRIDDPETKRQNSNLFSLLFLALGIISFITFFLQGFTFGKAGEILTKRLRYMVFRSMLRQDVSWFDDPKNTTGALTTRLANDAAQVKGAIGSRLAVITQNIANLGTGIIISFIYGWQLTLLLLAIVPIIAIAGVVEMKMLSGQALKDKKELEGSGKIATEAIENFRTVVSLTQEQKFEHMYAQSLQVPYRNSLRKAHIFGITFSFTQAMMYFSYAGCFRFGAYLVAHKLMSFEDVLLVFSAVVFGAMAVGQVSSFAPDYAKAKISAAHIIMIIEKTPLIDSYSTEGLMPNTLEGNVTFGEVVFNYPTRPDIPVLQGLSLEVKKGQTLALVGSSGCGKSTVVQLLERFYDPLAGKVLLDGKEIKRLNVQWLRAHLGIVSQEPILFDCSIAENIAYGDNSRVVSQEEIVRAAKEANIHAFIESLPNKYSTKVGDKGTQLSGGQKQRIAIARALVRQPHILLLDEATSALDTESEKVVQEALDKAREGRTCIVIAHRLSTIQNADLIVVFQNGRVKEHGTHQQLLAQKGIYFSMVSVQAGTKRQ
Chain of EGFR (P00533 25-1210): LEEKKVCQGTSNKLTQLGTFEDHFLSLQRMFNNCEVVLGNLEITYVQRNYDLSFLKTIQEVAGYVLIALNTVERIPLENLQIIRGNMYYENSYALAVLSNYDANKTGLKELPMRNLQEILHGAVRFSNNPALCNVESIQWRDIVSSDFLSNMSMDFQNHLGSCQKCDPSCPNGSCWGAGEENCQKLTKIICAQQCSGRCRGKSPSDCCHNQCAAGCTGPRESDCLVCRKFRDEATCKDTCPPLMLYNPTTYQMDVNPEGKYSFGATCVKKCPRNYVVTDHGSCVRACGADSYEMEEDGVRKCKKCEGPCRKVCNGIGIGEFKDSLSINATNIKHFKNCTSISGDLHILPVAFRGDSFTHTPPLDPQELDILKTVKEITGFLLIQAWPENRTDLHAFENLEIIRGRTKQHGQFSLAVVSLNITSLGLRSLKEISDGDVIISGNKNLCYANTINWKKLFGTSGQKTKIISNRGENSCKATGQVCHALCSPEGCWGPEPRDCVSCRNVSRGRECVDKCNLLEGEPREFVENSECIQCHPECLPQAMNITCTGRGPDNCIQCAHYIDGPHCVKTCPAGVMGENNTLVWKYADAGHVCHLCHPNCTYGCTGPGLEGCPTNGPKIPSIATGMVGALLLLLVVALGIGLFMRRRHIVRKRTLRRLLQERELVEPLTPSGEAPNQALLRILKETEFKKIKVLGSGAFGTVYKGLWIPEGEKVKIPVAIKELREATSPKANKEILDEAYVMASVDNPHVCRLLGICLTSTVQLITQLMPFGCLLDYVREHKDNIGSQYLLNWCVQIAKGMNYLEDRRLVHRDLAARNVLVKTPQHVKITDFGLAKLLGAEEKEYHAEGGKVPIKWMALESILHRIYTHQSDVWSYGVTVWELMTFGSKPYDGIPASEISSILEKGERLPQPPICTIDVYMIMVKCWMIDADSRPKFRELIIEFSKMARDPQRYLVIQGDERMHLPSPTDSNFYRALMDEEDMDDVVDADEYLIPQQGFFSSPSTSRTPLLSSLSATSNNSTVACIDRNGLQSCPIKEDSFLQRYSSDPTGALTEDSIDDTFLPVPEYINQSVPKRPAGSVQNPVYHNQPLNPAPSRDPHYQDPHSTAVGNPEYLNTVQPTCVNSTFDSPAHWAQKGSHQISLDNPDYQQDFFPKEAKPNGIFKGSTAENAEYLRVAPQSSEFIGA
Chain of EGFR wild type (EGFR WT) (P00533 25-1210): as above

Compound	efflux ratio at 2 h, 1 µM (MDR1 (P-gp))	efflux ratio at 2 h, 1 µM (BCRP)	IC50 (ErbB2 WT; ErbB2 WT enzyme)	IC50 (EGFR wild type (EGFR WT); [2])	IC50 ([1]; ErbB2 YVMA phosphorylation)	IC50 (EGFR; EGFR enzyme)	IC50 (ErbB2 WT; ErbB2 WT enzyme assay)	IC50 (EGFR wild type (EGFR WT); [3])	IC50 [1, 4]	IC50 (EGFR; EGFR enzyme assay)
C=CC(=O)N1CC2CC(C1)N2c1ccc2ncnc(Nc3ccc(Oc4ccn5ncnc5c4)c(C)c3F)c2n1 [Example 46, 1-(6-(4-((4-([1,2,4]triazolo[1,5-a]pyridin-7-yloxy)-2-fluoro-3-methylphenyl)amino)pyrido[3,2-d]pyrimidin-6-yl)-3,6-diazabicyclo[3.1.1]heptan-3-yl)prop-2-en-1-one]	2.5	2.5	119 nM	2100 nM	18.2 nM	1270 nM	–	–	–	–
C=CC(=O)N1C[C@H](c2ccc3ncnc(Nc4ccc(Oc5ccc6c(c5)ncn6C)c(C)c4F)c3n2)CCC1(C)C (racemic) [Example 36, 1-(5-(4-((2-fluoro-3-methyl-4-((1-methyl-1H-benzo[d]imidazol-5-yl)oxy)phenyl)amino)pyrido[3,2-d]pyrimidin-6-yl)-2,2-dimethylpiperidin-1-yl)prop-2-en-1-one]	0.8	4.2	105 nM	1700 nM	18.9 nM	≥ 10000 nM	–	–	–	–
C=CC(=O)N1CCCN(c2ccc3ncnc(Nc4ccc(Oc5ccn6ncnc6c5)c(Cl)c4F)c3n2)CC1(C)C [Example 261]	1.3	3.6	–	–	–	–	13.4 nM	716 nM	27.9 nM	≥ 10000 nM
C=CC(=O)N1CCN(c2ccc3ncnc(Nc4cc(C)c(Oc5ccn6ncnc6c5)cc4F)c3n2)C[C@H]1CC [Example 164, (R)-1-(4-(4-((4-([1,2,4]triazolo[1,5-a]pyridin-7-yloxy)-2-fluoro-5-methylphenyl)amino)pyrido[3,2-d]pyrimidin-6-yl)-2-ethylpiperazin-1-yl)prop-2-en-1-one]	1.1	2.5	45.8 nM	665 nM	14.7 nM	≥ 10000 nM	–	–	–	–
C=CC(=O)N1[C@H](C)CN(c2ccc3ncnc(Nc4cc(Cl)c(Oc5ccn6ncnc6c5)cc4F)c3n2)C[C@@H]1C [Example 265]	1.2	3.4	–	–	–	–	17.2 nM	4040 nM	33.9 nM	7760 nM
C=CC(=O)N1CC2(C1)CN(c1ccc3ncnc(Nc4ccc(Oc5ccn6ncnc6c5)c(Cl)c4F)c3n1)C2 [Example 101, 1-(6-(4-((4-([1,2,4]triazolo[1,5-a]pyridin-7-yloxy)-3-chloro-2-fluorophenyl)amino)pyrido[3,2-d]pyrimidin-6-yl)-2,6-diazaspiro[3.3]heptan-2-yl)prop-2-en-1-one]	1.9	2.5	39.2 nM	≥ 5000 nM	32 nM	1380 nM	–	–	–	–
C=CC(=O)N1CCCC[C@@H](c2ccc3ncnc(Nc4ccc(Oc5ccc6c(c5)ncn6C)c(C)c4F)c3n2)C1 (racemic) [Example 145, rac-(R)-1-(3-(4-((2-fluoro-3-methyl-4-((1-methyl-1H-benzo[d]imidazol-5-yl)oxy)phenyl)amino)pyrido[3,2-d]pyrimidin-6-yl)azepan-1-yl)prop-2-en-1-one]	6.4	1.4	5.9 nM	582 nM	15.3 nM	410 nM	–	–	–	–
C=CC(=O)N1[C@@H]2CC[C@H]1[C@H](c1ccc3ncnc(Nc4ccc(Oc5ccn6ncnc6c5)c(C)c4F)c3n1)C2 (racemic) [Example 213, rac-1-((1 S,2R,4R)-2-(4-((4-([1,2,4]triazolo[1,5-a]pyridin-7-yloxy)-2-fluoro-3-methylphenyl)amino)pyrido[3,2-d]pyrimidin-6-yl)-7-azabicyclo[2.2.1]heptan-7-yl)prop-2-en-1-one]	1.5	3.4	7.3 nM	≥ 5000 nM	23.9 nM	264 nM	–	–	–	–
C=CC(=O)N1CC[C@@H](c2ccc3ncnc(Nc4ccc(Oc5ccn6ncnc6c5)c(C)c4F)c3n2)CC12CC2 (single isomer, unassigned) [Example 173]	0.7	3	105 nM	2310 nM	21 nM	≥ 10000 nM	–	–	–	–
C=CC(=O)N1CCC(Oc2ccc3ncnc(Nc4ccc(Oc5ccc6cn(C)nc6c5)c(C)c4)c3n2)CC1 [Example 3, 1-(4-((4-((3-methyl-4-((2-methyl-2H-indazol-6-yl)oxy)phenyl)amino)pyrido[3,2-d]pyrimidin-6-yl)oxy)piperidin-1-yl)prop-2-en-1-one]	2	1.5	260 nM	≥ 5000 nM	60.6 nM	≥ 10000 nM	–	–	–	–
C=CC(=O)N1CCN(c2ccc3ncnc(Nc4cc(Cl)c(Oc5ccn6ncnc6c5)cc4F)c3n2)CC1(C)C [Example 326]	1.5	2.1	–	–	–	–	18.7 nM	961 nM	19.7 nM	2860 nM
C=CC(=O)N1C[C@@H]2C[C@H]1C[C@H]2c1ccc2ncnc(Nc3ccc(Oc4ccn5ncnc5c4)c(C)c3F)c2n1 (racemic) [Example 199, rac-1-((1 S,4R,5R)-5-(4-((4-([1,2,4]triazolo[1,5-a]pyridin-7-yloxy)-2-fluoro-3-methylphenyl)amino)pyrido[3,2-d]pyrimidin-6-yl)-2-azabicyclo[2.2.1]heptan-2-yl)prop-2-en-1-one]	0.6	3.2	17.4 nM	942 nM	22.3 nM	483 nM	–	–	–	–
C=CC(=O)N1C[C@H]2C[C@@H]1[C@H](c1ccc3ncnc(Nc4cc(C)c(Oc5cnc6c(c5)ncn6C)cc4F)c3n1)C2 [Example 416]	0.9	2	–	–	–	–	79.5 nM	≥ 5000 nM	36.6 nM	2710 nM
C=CC(=O)N1CC[C@@H]2C[C@H]1CN2c1ccc2ncnc(Nc3cc(Cl)c(Oc4ccn5ncnc5c4)cc3F)c2n1 [Example 177, 1-((1 S,5R)-6-(4-((4-([1,2,4]triazolo[1,5-a]pyridin-7-yloxy)-5-chloro-2-fluorophenyl)amino)pyrido[3,2-d]pyrimidin-6-yl)-2,6-diazabicyclo[3.2.1]octan-2-yl)prop-2-en-1-one]	1.9	3.6	9.7 nM	156 nM	5.7 nM	129 nM	–	–	–	–
C=CC(=O)N1C[C@@H]2C[C@H]1CN(c1ccc3ncnc(Nc4ccc(Oc5ccc6c(c5)ncn6C)c(C)c4F)c3n1)C2 [Example 109, 1-((1R,5S)-3-(4-((2-fluoro-3-methyl-4-((1-methyl-1H-benzo[d]imidazol-5-yl)oxy)phenyl)amino)pyrido[3,2-d]pyrimidin-6-yl)-3,6-diazabicyclo[3.2.1]octan-6-yl)prop-2-en-1-one]	2	2	282 nM	≥ 5000 nM	13.4 nM	≥ 10000 nM	–	–	–	–
